Measured values: patent publication US20050107400A1, “Use of pyrazolopyridines as therapeutic compounds” (priority 2001, published 2005)

These compounds were tested on HSV-1 (assay: HSV-1 replication in infected Vero 76 cells, DNA hybridization capture assay). Conditions: Human alphaherpesvirus 1; HSV-1 in Vero 76 cells, MOI=0.001, 40-48 hours at 37° C.; read-out: IC50.
Format: cell-based, herpes simplex virus 1
Method: a) Tissue Culture and HSV Infection.
Vero 76 cells were maintained in MEM with Earle's salts, L-glutamine, 8% FBS (Hyclone, A-1111-L) and 100 units/mL Penicillin-100 μg/mL Streptomycin. For assay conditions, FBS was reduced to 2%. Cells are seeded into 96-well tissue culture plates at a density of 5×10^4 cells/well after being incubated for 45 min at 37° C. in the presence of HSV-1 or HSV-2 (MOI=0.001). Test compounds are added to the wells and the plates are incubated at 37° C. for 40-48 hours. Cell lysates are prepared as follows: media was removed and replaced with 150 μL/well 0.2 N NaOH with 1% Igepal CA 630 or NP-40. Plates were incubated up to 14 days at room temperature in a humidified chamber to prevent evaporation.
(b) Preparation of Detection DNA.
For the detection probe, a gel-purified, digoxigenin-labeled, […] PCR fragment of the HSV UL-15 sequence was utilized. PCR conditions included 0.5 μM primers, 180 μM dTTP, 20 μM dUTP-digoxigenin (Boehringer Mannheim 1558706), 200 μM each of dATP, dCTP, and dGTP, 1×PCR Buffer II (Perkin Elmer), 2.5 mM MgCl2, 0.025 units/μL of AmpliTaq Gold polymerase (Perkin Elmer), and 5 ng of gel-purified HSV DNA per 100 μL Extension conditions were 10 min at 95° C., followed by 30 cycles of 95° C. for 1 min, 55° C. for 30 sec, and 72° C. for 2 min. The amplification was completed with a 10-min incubation at 72° C. Primers were selected to amplify a 728 bp probe spanning a section of the HSV1 UL15 open reading frame (nucleotides 249-977). Single-stranded transcripts were purified with Promega M13 Wizard kits. The final product was mixed 1:1 with a mixture of 6 M GuSCN, 100 mM EDTA and 200 μg/mL herring sperm DNA and stored at 4° C.
(c) Preparation of Capture Plates.
The capture DNA plasmid (HSV UL13 region in pUC) was linearized by cutting with Xba I, denatured for 15 min at 95° C. and diluted immediately into Reacti-Bind DNA Coating Solution (Pierce, 17250, diluted 1:1 with TE buffer, pH 8) at 1 ng/μL. 75 μL/well were added to Corning (#3922 or 9690) white 96-well plates and incubated at room temperature for at least 4 hrs before washing twice with 300 μL/well 0.2×SSC/0.05% Tween-20 (SSC/T buffer). The plates were then incubated overnight at room temperature with 150 μL/well 0.2 N NaOH, 1% IGEPAL and 10 μg/mL herring sperm DNA.
Twenty-seven (27) μL of cell lysate was combined with 45 μL of hybridization solution (final concentration: 3M GuSCN, 50 mM EDTA, 100 μg/ml salmon sperm DNA, 5×Denhardt's solution, 0.25×APE, and 5 ng of the digoxigenin-labeled detection probe). APE is 1.5 M NH4-acetate, 0.15 M NH4H2 phosphate, and 5 mM EDTA adjusted to pH 6.0. Mineral oil (50 μL) was added to prevent evaporation. The hybridization plates were incubated at 95° C. for 10 minutes to denature the DNA, then incubated at 42° C. overnight. The wells were washed 6× with 300 μL/well SSC/T buffer then incubated with 75 μL/well anti-digoxigenin-HRP-conjugated antibody (Boehringer Mannheim 1207733, 1:5000 in TE) for 30 min at room temperature. The wells were washed 6× with 300 μL/well with PBS/0.05% Tween-20 before 75 μL/well SuperSignal LBA substrate (Pierce) was added. The plates were incubated at room temperature for 30 minutes and chemiluminescence was measured in a Wallac Victor reader.
The following results were obtained for HSV-1.
With CCCCNc1nccc(-c2c(-c3ccc(F)cc3)nn3ccccc23)n1 [Example 16, N-Butyl-4-[2-(4-fluorophenyl)pyrazolo[1,5-a]pyridin-3-yl]-2-pyrimidin-amine] the IC50 was over 20 µM. O=C1CCCN1CCCNc1cc(-c2c(-c3ccc(F)cc3)nn3ccccc23)ccn1 [Example 39, 1-[3-({4-[2-(4-fluorophenyl)-pyrazolo[1,5-a]pyridin-3-yl]-2-pyridinyl}amino)propyl]-2-pyrrolidinone] gave an IC50 of 1.7 µM. OCCCNc1cc(-c2c(-c3ccc(F)cc3)nn3ccccc23)ccn1 [Example 3, 3-(4-[2-(4-Fluorophenyl)pyrazolo[1,5-a]pyridin-3-yl]-2-pyridinylamino)-1-propanol] showed an IC50 of 1.5 µM. Work on Fc1ccc(-c2nn3ccc(N4CCCC4)cc3c2-c2ccnc(NC3CCCC3)n2)cc1 [Example 37, N-Cyclopentyl-4-[2-(4-fluorophenyl)-5-(1-pyrrolidinyl)pyrazolo[1,5-a]pyridin-3-yl]-2-pyrimidinamine] yielded an IC50 of 1.4 µM. With CCc1cccc2c(-c3ccnc(NC4CC4)n3)c(-c3ccc(F)cc3)nn12 [Example 87, N-Cyclopropyl-4-[7-ethyl-2-(4-fluorophenyl)pyrazolo[1,5-a]pyridin-3-yl]-2-pyrimidinamine] the IC50 was 3 µM. Fc1ccc(-c2nn3cc(C(F)(F)F)ccc3c2-c2ccnc(NCC(F)(F)F)n2)cc1 [Example 22, 4-[2-(4-Fluorophenyl)-6-trifluoromethylpyrazolo[1,5-a]pyridin-3-yl]-N-(2,2,2-trifluoroethyl)-2-pyrimidinamine] was tested, and the IC50 was 4.3 µM. With OCCCNc1cc(-c2c(-c3ccc(F)cc3)nn3cc(C(F)(F)F)ccc23)ccn1 [Example 14, 3-(4-[2-(4-Fluorophenyl)-6-trifluoromethylpyrazolo[1,5-a]-pyridin-3-yl]-2-pyridinylamino)-1-propanol] the IC50 was 2 µM. Fc1ccc(-c2nn3ccccc3c2-c2ccnc(NCc3cccnc3)n2)cc1 [Example 27, 4-[2-(4-Fluorophenyl)pyrazolo[1,5-a]pyridin-3-yl]-N-(3-pyridinylmethyl)-2-pyrimidinamine] was tested, and the IC50 was 0.5 µM. N#Cc1ccc2c(-c3ccnc(NC4CC4)n3)c(-c3ccc(F)cc3)nn2c1 [Example 24, N-Cyclopropyl-4-[6-cyano-2-(4-fluorophenyl)pyrazolo[1,5-a]pyridin-3-yl]-2-pyrimidinamine] showed an IC50 of 0.2 µM. In the case of CCCCCNc1cc(-c2c(-c3ccc(F)cc3)nn3ccccc23)ccn1 [Example 30, 4-[2-(4-Fluorophenyl)pyrazolo[1,5-a]pyridin-3-yl]-N-pentyl-2-pyridinamine], the IC50 is reported as 4 µM. C=CCNc1cc(-c2c(-c3ccc(F)cc3)nn3ccccc23)ccn1 [Example 42, N-Allyl-4-[2-(4-fluorophenyl)pyrazolo-[1,5-a]pyridin-3-yl]-2-pyridinamine] showed an IC50 of 5 µM. CCCCOc1cc(-c2c(-c3ccc(F)cc3)nn3ccccc23)ccn1 [Example 91, 3-(2-Butoxypyridin-4-yl)-2-(4-fluorophenyl)pyrazolo[1,5-a]pyridine] was tested, and the IC50 was 11 µM. In the case of O=C(NC1CC1)c1ccc2c(-c3ccnc(NC4CC4)n3)c(-c3ccc(F)cc3)nn2c1 [Example 48, N-Cyclopropyl-3-[2-(cyclopropylamino)-4-pyrimidinyl]-2-(4-fluorophenyl)pyrazolo[1,5-a]pyridine-6-carboxamide], the IC50 is reported as 0.9 µM. NCCCNc1cc(-c2c(-c3ccc(F)cc3)nn3ccccc23)ccn1 [Example 4, N^1-4-[2-(4-Fluorophenyl)pyrazolo[1,5-a]pyridin-3-yl]-2-pyridinyl-1,3-propanediamine] gave an IC50 of 20 µM. NC(=O)c1ccc2c(-c3ccnc(NCCCO)n3)c(-c3ccc(F)cc3)nn2c1 [Example 25, 2-(4-Fluorophenyl)-3-(4-(2-(3-hydroxypropyl)amino)pyrimidinyl)-6-pyrazolo-[1,5-a]pyridinylcarboxamide] showed an IC50 of 5.5 µM. CN(C)C(=O)c1ccc2c(-c3ccnc(NC4CC4)n3)c(-c3ccc(F)cc3)nn2c1 [Example 47, 3-[2-(Cyclopropylamino)-4-pyrimidinyl]-2-(4-fluorophenyl)-N,N-dimethylpyrazolo[1,5-a]pyridine-6-carboxamide] showed an IC50 of 1 µM. Compound CNc1cc(-c2c(-c3ccc(F)cc3)nn3ccccc23)cc(F)n1 [Example 40, 6-Fluoro-4-[2-(4-fluorophenyl)-pyrazolo[1,5-a]pyridin-3-yl]-N-methyl-2-pyridinamine] has an IC50 of 5.3 µM. With CC(C)Nc1cc(-c2c(-c3ccc(F)cc3)nn3cc(C(F)(F)F)ccc23)ccn1 [Example 13, 4-[2-(4-Fluorophenyl)-6-trifluoromethylpyrazolo[1,5-a]pyridin-3-yl]-N-isopropyl-2-pyridinamine] the IC50 was 1.2 µM. COc1ccc(-c2nn3ccc(Cl)cc3c2-c2ccnc(NC3CCCC3)n2)cc1 [Example 38, 4-[5-Chloro-2-(4-methoxyphenyl)pyrazolo[1,5-a]pyridin-3-yl]-N-cyclopentyl-2-pyrimidinamine] gave an IC50 of 3.8 µM. In the case of Fc1ccc(-c2nn3ccccc3c2-c2ccnc(NCc3ccncc3)n2)cc1 [Example 29, 4-[2-(4-Fluorophenyl)pyrazolo[1,5-a]pyridin-3-yl]-N-(4-pyridinylmethyl)-2-pyrimidinamine], the IC50 is reported as 10 µM. Compound COc1ccc(CNc2cc(-c3c(-c4ccc(F)cc4)nn4ccccc34)ccn2)cc1 [Example 6, 4-[2-(4-Fluorophenyl)pyrazolo[1,5-a]pyridin-3-yl]-N-(4-methoxybenzyl)-2-pyridinamine] has an IC50 of 4.2 µM. CCOC(=O)c1ccc2c(-c3ccnc(NC4CC4)n3)c(-c3ccc(OC)cc3)nn2c1 [Example 97, Ethyl 3-[2-(cyclopropylamino)pyrimidin-4-yl]-2-(4-methoxyphenyl)-pyrazolo[1,5-a]pyridine-6-carboxylate] was tested, and the IC50 was 16 µM. Fc1ccc(-c2nn3ccccc3c2-c2cc(-c3ccccc3)nc(NC3CCCC3)n2)cc1 [Example 49, N-Cyclopentyl-4-[2-(4-fluorophenyl)pyrazolo[1,5-a]pyridin-3-yl]-6-phenyl-2-pyrimidinamine] was tested, and the IC50 was 2.9 µM. Compound COC(=O)c1ccc2c(-c3ccnc(NCCCOC(C)=O)c3)c(-c3ccc(F)cc3)nn2c1 [Example 45, Methyl 3-(2-{[3-(acetyloxy)propyl]-amino}-4-pyridinyl)-2-(4-fluorophenyl)pyrazolo[1,5-a]pyridine-6-carboxylate] has an IC50 of 2.6 µM. Compound CN(C)c1cc(-c2c(-c3ccc(F)cc3)nn3ccccc23)ccn1 [Example 11, 4-[2-(4-Fluorophenyl)pyrazolo[1,5-a]pyridin-3-yl]-N,N-dimethyl-2-pyridinamine] has an IC50 of 4.4 µM. In the case of CC(C)Nc1nccc(-c2c(-c3ccc(F)cc3)nn3ccccc23)n1 [Example 17, 4-[2-(4-Fluorophenyl)pyrazolo[1,5-a]pyridin-3-yl]-N-(2-propyl)-2-pyrimidinamine], the IC50 is reported as 1.5 µM. For Fc1ccc(-c2nn3c(OCC(F)(F)F)cccc3c2-c2ccnc(NC3CCCCC3)n2)cc1 [Example 64, N-Cyclohexyl-4-[2-(4-fluorophenyl)-7-(2,2,2-trifluoroethoxy)pyrazolo[1,5-a]pyridin-3-yl]-2-pyrimidinamine], the IC50 was 0.9 µM. CCCCNc1nccc(-c2c(-c3ccc(F)cc3)nn3c(OCC(F)(F)F)cccc23)n1 [Example 60, N-Butyl-4-[2-(4-fluorophenyl)-7-(2,2,2-trifluoroethoxy)pyrazolo[1,5-a]pyridin-3-yl]-2-pyrimidinamine] showed an IC50 of 5 µM. CCCCNc1nccc(-c2c(-c3ccc(F)cc3)nn3c(C)cccc23)n1 [Example 85, N-Butyl-4-[2-(4-fluorophenyl)-7-methylpyrazolo[1,5-a]pyridin-3-yl]-2-pyrimidinamine] gave an IC50 of 1 µM.
